Counter-ions that a name gives are not always drawn. Like-named read-outs stand apart in the source and are kept apart here.

The text below walks through data of patent publication US4760089A, “Irreversible dopamine-β-hydroxylase inhibitors” (SmithKline Beckman Corporation, priority 1985, dated 1988).

The test system of data set [1] is DBH. To be noted: Runti et al., Il Farmaco Ed. Sci. 36, 260 (1980); cited from earlier work.
The target in data set [2] is T1, dopamine-β-hydroxylase (DBH) (Bos taurus, UniProt P15101).
T1 sequence (P15101 1-610): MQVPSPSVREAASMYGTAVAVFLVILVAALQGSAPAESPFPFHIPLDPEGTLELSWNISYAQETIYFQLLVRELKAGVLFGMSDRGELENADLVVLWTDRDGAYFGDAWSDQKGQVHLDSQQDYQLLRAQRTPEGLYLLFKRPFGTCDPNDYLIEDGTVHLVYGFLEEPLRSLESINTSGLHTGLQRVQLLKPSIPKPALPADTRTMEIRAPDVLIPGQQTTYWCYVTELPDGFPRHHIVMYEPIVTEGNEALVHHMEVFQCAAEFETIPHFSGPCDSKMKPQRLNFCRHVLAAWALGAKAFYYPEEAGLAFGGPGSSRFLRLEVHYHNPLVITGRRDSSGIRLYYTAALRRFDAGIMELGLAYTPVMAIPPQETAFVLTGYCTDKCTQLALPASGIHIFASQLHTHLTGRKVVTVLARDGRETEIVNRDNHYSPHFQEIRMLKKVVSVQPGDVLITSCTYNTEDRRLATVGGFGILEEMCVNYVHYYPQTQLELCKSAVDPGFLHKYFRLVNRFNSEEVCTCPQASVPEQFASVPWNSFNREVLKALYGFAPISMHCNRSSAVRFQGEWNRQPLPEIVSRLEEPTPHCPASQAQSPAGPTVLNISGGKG
In words: Dialysis of enzyme-inhibitor complexes to test reversibility of DBH inhibition. It counts as biochemical. To be noted: for Amount of Product Formed Pre-Dialysis: approx. 3 hour incubation with DBH; for Amount of Product Formed Post-Dialysis: dialyzed overnight, pH 5.5 acetate buffer; for activity at 1000 µM: tyramine alone = 100%. As to the method:
(§1) Presently invented also are methods of producing DBH inhibition in mammals, including humans, by administering an effective amount of 2-cyano-2-phenethylamine or a 2-cyano-2-(hydroxyphenyl)ethylamine compound. […] DBH activity was assayed by a standard procedure for measuring the conversion of tyramine to octopamine in the presence of DBH. J. J. Pisano, et al., Biochim. Biophy. Acta, 43, 566-68 (1960). Octopamine was assayed following sodium periodate oxidation to p-hydroxybenzaldehyde by measuring spectrophotometric absorbance at 330 nm.
Dialysis of enzyme-inhibitor complexes was selected as the approach for testing the reversibility of the inhibition produced by these compounds. A known, reversible DBH inhibitor, fusaric acid, was utilized as a reference standard. Following approximate 3 hour incubation of DBH with one of the inhibitors, the rate of enzymatic conversion of tyramine to octopamine was measured by the standard procedure used in the enzyme kinetic analyses. Thereafter, the enzyme previously incubated with inhibitor was placed in a standard dialysis bag and dialyzed overnight against four changes of pH 5.5 acetate buffer. Following dialysis, the rate of enzymatic conversion of tyramine to octopamine again was measured.

The test system of data set [3] is peripheral dopamine (DA) and norepinephrine (NE) levels. Nature of the data set: In vivo effect on peripheral dopamine and norepinephrine levels. To be noted: twice; for DA / NE: per gram of tissue, about 2 hours after second dose. The arrangement: species or system spontaneously hypertensive rats. The method, then:
One of the 2-cyano-2-phenethylamine compounds also was tested for its effect in vivo on peripheral dopamine (DA) and norepinephrine (NE) levels substantially by the procedure of DaPrada and Zurcher, Life Sciences, 19, 1161, (1976). Groups of five spontaneously hypertensive rats were dosed orally, twice, the second dose approximately 18 hours after the first, and were sacrificed about 2 hours after the second dose.

The conditions of data set [4]: Teresawa et al., Japan. Cir. J. 35, 339 (1971); cited from earlier work.
Data set [5] addresses T1, dopamine-β-hydroxylase (DBH). Nature of the data set: DBH enzyme inhibition kinetics, conversion of tyramine to octopamine. It counts as biochemical. To be noted: several inhibitor concentrations. As to the method:
as §1
Further, the changing apparent rate constant and the unchanging maxiumum reaction rate indicate that the compounds useful in the presently invented method initially are competitive blockers of substrate-enzyme interactions.

Data set [6] relates to spontaneously hypertensive rats. In words: Mean arterial blood pressure in spontaneously hypertensive rats. To be noted: 100 mg/kg intraperitoneally. It is filed as in vivo. The method, then: Further, spontaneously hypertensive rats were dosed with a suspension or solution of 2-cyano-2-phenethylamine hydrochloride at a dose of 100 mg/kg intraperitoneally, and mean arterial blood pressure was monitored for 260 minutes using indwelling cannulae positioned in the tail arteries. Approximate thirty percent reductions in blood pressure were observed thirty to forty minutes following administration of this compound. At 260 minutes after administration of this compound, blood pressure remained reduced by approximately twenty percent when compared to vehicle-treated controls.

Where [7] appears, read: Tyramine 10^-2 M and Fusaric Acid 10^-4 M.
[8] abbreviates: Tyramine 10^-2 M and inhibitor 10^-3 M.

Regarding phenylpicolinic acid, the “DBH inhibitory activity relative to fusaric acid” value in data set [1] is reported as “twice the inhibitory activity of fusaric acid”.
Turning to `CCCCc1ccc(C(=O)O)nc1` [Fusaric Acid, reference compound], the activity at 100 µM in data set [2] (3 h, read-out: DBH Activity Pre-Dialysis) came to 2%. In addition, in data set [2] (setting [7]), the “Amount of Product Formed Pre-Dialysis” value was 4.0 nM and the “Amount of Product Formed Post-Dialysis” value came to 169.0 nM. Further, in data set [2] (read-out: DBH Activity Post-Dialysis), the activity at 100 µM stood at 89.2%. Also, in data set [3] (Experiment 1, 50 mg/kg orally), the “DA/NE Ratio” value came to 0.0994 ± 0.007, the DA turned out to be 0.819 µg/g and the NE came to 8.31 µg/g. Besides, in data set [3] (Experiment 2, 50 mg/kg orally), the “DA/NE Ratio” value was 0.112 ± 0.0055, the DA is 0.615 µg/g and the NE turned out to be 5.82 µg/g. Besides, the toxic effect result in data set [4] is given as “hepatotoxic”.
For `N#CC(CN)c1ccccc1` (stereo not shown) [2-cyano-2-phenethylamine hydrochloride], the “DBH activity versus inhibitor concentration (FIG. 1, double-reciprocal plot)” value in data set [5] is recorded as “reductions in DBH activity were related directly to increasing 2-cyano-2-phenethylamine hydrochloride concentrations”. Moreover, the activity at 1000 µM in data set [2] (3 h, Tyramine 10^-2 M and inhibitor 10^-3 M, read-out: DBH Activity Pre-Dialysis) is 8%. For the same compound, in data set [2] (setting [8]), the “Amount of Product Formed Pre-Dialysis” value amounted to 15.7 nM and the “Amount of Product Formed Post-Dialysis” value is listed as 10.5 nM. Moreover, the activity at 1000 µM in data set [2] (Tyramine 10^-2 M and inhibitor 10^-3 M, read-out: DBH Activity Post-Dialysis) was 5.5%. In data set [3] (Experiment 1, 100 mg/kg orally), the “DA/NE Ratio” value came out at 0.0716 ± 0.004, the DA was 0.571 µg/g and the NE came to 7.96 µg/g. Besides, in data set [3] (Experiment 2, 100 mg/kg orally), the “DA/NE Ratio” value came to 0.0628 ± 0.0013, the DA is 0.408 µg/g and the NE came to 6.47 µg/g. Further, the “reduction in mean arterial blood pressure compared to vehicle-treated controls” value in data set [6] (at 260 minutes after administration) is “approximately twenty”. For the same compound, in data set [6] (thirty to forty minutes following administration), the “reduction in mean arterial blood pressure” value was “thirty”.
